According to ChEMBL document CHEMBL5120862, “Novel non-covalent LSD1 inhibitors endowed with anticancer effects in leukemia and solid tumor cellular models” (Eur J Med Chem, 2022):
Activity calls are given as the source filed them. The calls are words filed in the database; no cut-off is given here.

Experiments:
[1] = biological target: Lysine-specific histone demethylase 1A (Homo sapiens) (UniProt O60341); test: Inhibition of LSD1 in human MV4-11 cells assessed as increase in CD86 expression level incubated for 24 hrs by qRT-PCR analysis; type: cell-based; settings: dose 0.2-1 µM
[2] = test system: RD; test: Induction of apoptosis in human RD cells assessed as increase in caspase 3/7 level at 2 uM incubated for 24 hrs; type: functional, cell-based
[3] = biological target: Histone-lysine N-methyltransferase EZH2 (Homo sapiens) (UniProt Q15910); test: Inhibition of EZH2 (unknown origin) using [3H]SAM and chicken core histone as substrates at 100 uM incubated for 1 hr relative to control
[4] = test system: RD; test: Antiproliferative activity against human RD cells assessed as inhibition of cell growth incubated for 24 hrs; type: functional, cell-based
[5] = test system: MV4-11; test: Antiproliferative activity against human MV4-11 cells assessed as inhibition of cell growth at 0.2 to […] incubated for 72 hrs by trypan blue staining based analysis; type: functional; settings: dose 0.2-2.5 µM
[6] = Cytotoxicity against human derived mesenchymal stem cells assessed as residual cell viability at 1.25 uM measured after 72 hrs relative to control; type: toxicity, cell-based; settings: read-out: Activity
[7] = biological target: Lysine-specific histone demethylase 1A (Homo sapiens) (UniProt O60341); test: Inhibition of LSD1 in human Rh30 cells assessed as increase in H3K4me2 level at 1 uM incubated for 48 hrs by Western blot analysis; type: cell-based
[8] = test system: MV4-11; test: Induction of apoptosis in human MV4-11 cells assessed as accumulation of cells at sub-G1 phase incubated for 24 hrs; type: functional, cell-based; settings: dose 0.2-25 µM, DDE = dose-dependent effect
[9] = Cytotoxicity against HMEC cells assessed as residual cell viability at 1 uM incubated for 72 hrs by MTT assay relative to control; type: toxicity, cell-based; settings: human, read-out: Activity
[10] = biological target: Histone-lysine N-methyltransferase, H3 lysine-79 specific (Homo sapiens) (UniProt Q8TEK3); test: Inhibition of […] (unknown origin) using [3H]SAM and HeLa oligo nucleosomes as substrates at 100 uM incubated for 1 hr relative to control
[11] = biological target: T1, MAO-A (amine oxidase [flavin-containing] A) (Homo sapiens, UniProt P21397); test: Inhibition of human MAO-A using p-tyramine as substrate at 100 uM by fluorimetric analysis relative to control; settings: human MAO-A enzyme, probe p-tyramine
T1 sequence (P21397 whole entry): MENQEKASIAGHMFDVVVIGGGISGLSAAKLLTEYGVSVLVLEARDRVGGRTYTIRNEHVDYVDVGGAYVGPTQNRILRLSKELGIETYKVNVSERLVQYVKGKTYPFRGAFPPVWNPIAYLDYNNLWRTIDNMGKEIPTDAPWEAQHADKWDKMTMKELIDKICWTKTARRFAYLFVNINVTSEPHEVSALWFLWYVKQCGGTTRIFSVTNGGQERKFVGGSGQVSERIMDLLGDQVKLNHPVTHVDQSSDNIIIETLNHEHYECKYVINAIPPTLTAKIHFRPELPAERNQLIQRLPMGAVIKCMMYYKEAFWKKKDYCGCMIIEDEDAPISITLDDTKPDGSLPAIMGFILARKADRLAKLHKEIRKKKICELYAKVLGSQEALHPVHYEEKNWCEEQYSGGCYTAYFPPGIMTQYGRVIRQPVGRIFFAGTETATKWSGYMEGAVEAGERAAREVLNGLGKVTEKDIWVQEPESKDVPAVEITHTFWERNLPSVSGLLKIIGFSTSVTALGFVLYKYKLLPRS

[12] = test system: THP-1; test: Antiproliferative activity against human THP-1 cells assessed as inhibition of cell growth incubated for 144 hrs by CellTiter-Glo luminescent cell viability assay; type: functional, cell-based; settings: THP-1, 144 h

Sequence of Histone-lysine N-methyltransferase, H3 lysine-79 specific (Homo sapiens) (Q8TEK3 whole entry, looked up): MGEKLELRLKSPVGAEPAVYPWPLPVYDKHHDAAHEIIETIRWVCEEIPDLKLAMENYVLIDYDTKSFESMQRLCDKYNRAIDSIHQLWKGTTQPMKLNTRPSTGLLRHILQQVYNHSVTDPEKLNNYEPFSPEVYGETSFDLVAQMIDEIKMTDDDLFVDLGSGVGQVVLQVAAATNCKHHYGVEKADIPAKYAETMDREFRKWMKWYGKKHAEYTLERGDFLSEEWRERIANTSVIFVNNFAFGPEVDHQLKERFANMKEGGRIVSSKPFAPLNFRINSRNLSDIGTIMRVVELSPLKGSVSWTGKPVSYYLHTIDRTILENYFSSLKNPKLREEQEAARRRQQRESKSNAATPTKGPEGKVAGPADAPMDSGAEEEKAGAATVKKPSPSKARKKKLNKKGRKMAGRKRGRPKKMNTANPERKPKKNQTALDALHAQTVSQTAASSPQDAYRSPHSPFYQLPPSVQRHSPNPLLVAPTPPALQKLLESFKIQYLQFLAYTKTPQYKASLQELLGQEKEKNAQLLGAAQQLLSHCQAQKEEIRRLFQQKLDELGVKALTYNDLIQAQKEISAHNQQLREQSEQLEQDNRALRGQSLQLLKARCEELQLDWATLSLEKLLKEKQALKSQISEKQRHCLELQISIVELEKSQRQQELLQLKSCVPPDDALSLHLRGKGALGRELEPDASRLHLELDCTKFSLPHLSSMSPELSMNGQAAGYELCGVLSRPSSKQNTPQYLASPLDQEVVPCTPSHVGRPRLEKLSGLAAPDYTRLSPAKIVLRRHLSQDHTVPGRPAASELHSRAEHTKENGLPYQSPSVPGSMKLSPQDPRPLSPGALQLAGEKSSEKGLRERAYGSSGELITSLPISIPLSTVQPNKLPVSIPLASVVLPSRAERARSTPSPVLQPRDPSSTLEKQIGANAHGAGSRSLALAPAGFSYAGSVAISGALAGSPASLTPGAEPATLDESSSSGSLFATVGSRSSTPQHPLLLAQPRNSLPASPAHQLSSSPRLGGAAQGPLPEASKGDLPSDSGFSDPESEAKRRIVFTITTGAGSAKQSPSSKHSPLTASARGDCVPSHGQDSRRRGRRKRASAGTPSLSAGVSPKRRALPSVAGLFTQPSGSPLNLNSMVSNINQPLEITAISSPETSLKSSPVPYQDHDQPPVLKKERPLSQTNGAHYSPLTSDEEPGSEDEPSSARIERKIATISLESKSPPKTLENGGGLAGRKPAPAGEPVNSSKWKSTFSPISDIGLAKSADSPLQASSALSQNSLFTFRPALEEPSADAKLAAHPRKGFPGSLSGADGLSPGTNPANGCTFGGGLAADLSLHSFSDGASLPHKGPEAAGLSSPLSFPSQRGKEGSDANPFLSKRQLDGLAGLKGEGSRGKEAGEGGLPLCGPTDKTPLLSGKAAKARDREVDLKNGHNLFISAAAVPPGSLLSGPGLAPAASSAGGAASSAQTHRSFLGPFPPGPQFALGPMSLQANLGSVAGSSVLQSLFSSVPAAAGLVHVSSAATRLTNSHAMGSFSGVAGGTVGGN
Sequence of Histone-lysine N-methyltransferase EZH2 (Homo sapiens) (Q15910 whole entry, looked up): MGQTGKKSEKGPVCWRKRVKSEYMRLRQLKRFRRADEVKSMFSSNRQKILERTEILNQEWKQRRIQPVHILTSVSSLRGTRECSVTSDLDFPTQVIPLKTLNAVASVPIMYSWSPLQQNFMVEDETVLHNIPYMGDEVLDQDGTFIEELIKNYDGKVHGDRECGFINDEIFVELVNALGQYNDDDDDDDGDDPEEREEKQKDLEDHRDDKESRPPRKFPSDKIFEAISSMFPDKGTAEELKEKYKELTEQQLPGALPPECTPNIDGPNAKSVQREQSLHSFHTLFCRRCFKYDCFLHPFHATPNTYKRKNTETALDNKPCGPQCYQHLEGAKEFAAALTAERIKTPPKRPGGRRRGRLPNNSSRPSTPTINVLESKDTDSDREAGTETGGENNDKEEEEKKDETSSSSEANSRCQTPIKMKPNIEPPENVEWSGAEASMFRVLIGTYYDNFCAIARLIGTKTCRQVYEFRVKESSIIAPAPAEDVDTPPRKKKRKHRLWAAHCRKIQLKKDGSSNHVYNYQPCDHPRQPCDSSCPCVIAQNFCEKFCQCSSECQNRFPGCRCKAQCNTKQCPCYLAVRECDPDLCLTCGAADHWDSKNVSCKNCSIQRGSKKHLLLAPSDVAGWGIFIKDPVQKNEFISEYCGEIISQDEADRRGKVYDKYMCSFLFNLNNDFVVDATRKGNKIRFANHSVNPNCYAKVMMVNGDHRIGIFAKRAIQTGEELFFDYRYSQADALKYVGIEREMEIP

inhibition [1]: Active
inhibition [3]: 1.8%
inhibition [7]: Active
inhibition [10]: 22.6%
inhibition at 100 µM [11]: 0.8%
IC50 [12]: 130 nM
Compound: COc1cc2c(NC3CCN(Cc4ccccc4)CC3)nc(NCCCN(C)C)nc2cc1OCc1ccccc1
Activity [2]: Active
IC50 [4]: 1230 nM
inhibition [5]: Active
viability at 72 h, 1.25 µM [6]: 92%
Activity [8]: Dde
viability at 72 h, 1 µM [9]: 76%
